Counter-ions that a name gives are not always drawn.
Legend:
5-HT2A [1] = target: T1, 5-HT2A (Homo sapiens, UniProt P28223); assay: PathHunter β-Arrestin assay; type: cell-based
Procedure: (§1) Compounds 1-18 were assessed for biological activity across a panel of 5-HT receptors including 5-HT2A, 5-HT2B, and 5-HT2C. Biased signaling was assessed by monitoring both intracellular Gq-mediated calcium release, as well as β-arrestin activation and recruitment to the GPCR. Table 2 is a summary of findings across these compounds and the 5-HT receptors tested. • (i) Arrestin Pathway Assay. The PathHunter® β-Arrestin assay monitors the activation of a GPCR in a homogenous, non-imaging assay format using a technology developed by DiscoverX called Enzyme Fragment Complementation (EFC) with β-galactosidase (β-Gal) as the functional reporter. […] EA is fused to β-Arrestin and PK is fused to the GPCR of interest. When the GPCR is activated and β-Arrestin is recruited to the receptor, ED and EA complementation occurs, restoring β-Gal activity which is measured using chemiluminescent PathHunter® Detection Reagents. PathHunter cell lines (DiscoveRx Eurofins) were expanded from freezer stocks according to standard procedures. Cells were seeded in a total volume of 20 μL into white walled, 384-well microplates and incubated at 37° C. for the appropriate time prior to testing. For agonist determination, cells were incubated with sample to induce response. Intermediate dilution of sample stocks was performed to generate 5× sample in assay buffer. 5 μL of 5× sample was added to cells and incubated at 37° C. or room temperature for 90 to 180 minutes. Vehicle concentration was 1%. β-Arrestin assay signal was generated through a single addition of 12.5 or 15 μL (50% v/v) of PathHunter Detection reagent cocktail, followed by a one-hour incubation at room temperature. Microplates were read following signal generation with a PerkinElmer Envision™ instrument for chemiluminescent signal detection. Compound activity was analyzed using CBIS data analysis suite (ChemInnovation, CA). For agonist mode assays, percentage activity was calculated using the following formula: % Activity=100%×(mean RLU of test sample-mean RLU of vehicle control)/(mean MAX control ligand−mean RLU of vehicle control). In these studies, the MAX control ligand response was generated using 10 mM serotonin. • (ii) Calcium Mobilization Assay. The Calcium No-WashPLUS assay monitors the activation of a GPCR via Gq secondary messenger signaling in a live cell, non-imaging assay format. Calcium mobilization in PathHunter® cell lines or other cell lines stably expressing Gq-coupled GPCRs is monitored using a calcium-sensitive dye that is loaded into cells. GPCR activation by a compound result in the release of calcium from intracellular stores and an increase in dye fluorescence that is measured in real-time. Cell lines expressing the GPCR of interest were expanded from freezer stocks according to standard procedures. Cells were seeded in a total volume of 20 μL into black-walled, clear-bottom, Poly-D-lysine coated 384-well microplates and incubated at 37° C. for the appropriate time prior to testing. Assays were performed in 1× Dye Loading Buffer consisting of 1× Dye, 1× Additive A and 2.5 mM Probenecid in HBSS/20 mM Hepes. Probenicid was prepared fresh. Cells were loaded with dye prior to testing. Media was aspirated from cells and replaced with 20 μL Dye Loading Buffer. Cells were incubated for 30-60 minutes at 37° C. For agonist determination, cells were incubated with sample to induce response. After dye loading, cells were removed from the incubator and 10 μL HBSS/20 mM Hepes was added. 3× vehicle was included in the buffer when performing agonist dose curves to define the EC80 for subsequent antagonist assays. Cells were incubated for 30 minutes at room temperature in the dark to equilibrate plate temperature. Intermediate dilution of sample stocks was performed to generate 4× sample in assay buffer. Compound agonist activity was measured on a FLIPR Tetra (MDS). Calcium mobilization was monitored for 2 minutes and 10 μL 4× sample in HBSS/20 mM Hepes was added to the cells 5 seconds into the assay. […]
Target sequence in this assay (P28223 whole entry, the tested form may be a part): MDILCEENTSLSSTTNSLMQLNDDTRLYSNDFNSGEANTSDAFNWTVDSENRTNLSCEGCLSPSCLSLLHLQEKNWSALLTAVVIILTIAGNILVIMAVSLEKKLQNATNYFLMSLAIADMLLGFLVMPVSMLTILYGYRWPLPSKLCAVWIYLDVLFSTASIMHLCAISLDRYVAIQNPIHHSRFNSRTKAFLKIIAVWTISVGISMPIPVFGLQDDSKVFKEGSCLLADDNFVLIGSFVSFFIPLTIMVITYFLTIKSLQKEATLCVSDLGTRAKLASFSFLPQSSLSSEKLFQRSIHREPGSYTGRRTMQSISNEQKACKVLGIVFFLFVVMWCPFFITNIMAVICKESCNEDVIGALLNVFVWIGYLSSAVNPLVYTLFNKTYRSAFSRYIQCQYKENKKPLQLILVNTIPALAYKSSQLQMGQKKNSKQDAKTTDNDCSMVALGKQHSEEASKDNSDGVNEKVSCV
Target sequence in this assay (P32121 whole entry, further chain, the tested form may be a part): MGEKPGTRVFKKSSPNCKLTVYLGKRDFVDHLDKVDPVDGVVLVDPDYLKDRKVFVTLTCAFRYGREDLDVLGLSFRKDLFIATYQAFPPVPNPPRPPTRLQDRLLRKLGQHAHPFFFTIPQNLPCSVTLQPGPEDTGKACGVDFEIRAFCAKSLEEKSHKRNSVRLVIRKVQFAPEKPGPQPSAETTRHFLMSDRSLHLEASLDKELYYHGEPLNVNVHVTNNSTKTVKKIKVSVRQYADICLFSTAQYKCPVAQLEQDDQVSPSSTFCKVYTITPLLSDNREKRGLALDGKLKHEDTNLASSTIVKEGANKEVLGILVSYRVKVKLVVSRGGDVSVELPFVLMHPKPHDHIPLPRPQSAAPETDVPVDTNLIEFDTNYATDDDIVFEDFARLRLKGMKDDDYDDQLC

5-HT2A [2] = target: T1, 5-HT2A; assay: Calcium Mobilization Assay (Calcium No-WashPLUS, Gq, FLIPR); type: cell-based; settings: read-out: 5-HT2A % activation @30 uM Ca++ Flux
Procedure: as §1
Target sequence in this assay (P28223 whole entry, the tested form may be a part): as the sequence (P28223 whole entry, the tested form may be a part) above

5-HT2C = target: T2, 5-HT2C (Homo sapiens, UniProt P28335); assay: 5-HT receptor panel, 5-HT2C agonist EC50 (readout not stated); type: cell-based
T2 sequence (P28335 33-458): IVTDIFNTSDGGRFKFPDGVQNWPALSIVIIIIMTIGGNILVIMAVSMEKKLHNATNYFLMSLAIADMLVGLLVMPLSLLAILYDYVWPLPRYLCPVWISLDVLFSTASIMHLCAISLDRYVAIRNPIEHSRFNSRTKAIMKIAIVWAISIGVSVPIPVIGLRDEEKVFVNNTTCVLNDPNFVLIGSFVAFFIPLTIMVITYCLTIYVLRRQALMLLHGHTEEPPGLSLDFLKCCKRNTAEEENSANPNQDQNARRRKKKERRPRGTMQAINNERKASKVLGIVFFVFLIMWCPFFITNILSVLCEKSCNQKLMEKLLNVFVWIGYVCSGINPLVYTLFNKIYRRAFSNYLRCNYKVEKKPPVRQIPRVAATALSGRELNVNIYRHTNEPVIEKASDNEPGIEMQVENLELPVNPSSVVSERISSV
Procedure: as §1

5-HT2A [3] = target: T1, 5-HT2A; settings: compared to reference LSD; cited from earlier work
Target sequence in this assay (P28223 whole entry, the tested form may be a part): as the sequence (P28223 whole entry, the tested form may be a part) above

5-HT2A receptor [4] = settings: cited from earlier work
5-HT2A receptor [5] = settings: cited from earlier work; remark: listed apart in the source

Structure (SMILES) | EC50 (5-HT2A [1]) | activation at 30 µM (5-HT2A [2]) | EC50 (5-HT2C) | further results
Cc1cc(Cl)cc(CNCCc2c[nH]c3ccccc23)c1 [Compound 1, N-(3-chloro-5-methylbenzyl)-2-(1H-indol-3-yl) ethan-1-amine] | 4.5 nM | 77.8% | 28 nM | 
Cc1cc(Cl)cc(CNC(C)Cc2c[nH]c3ccccc23)c1 (stereo not drawn) [Compound 2, N-(3-chloro-5-methylbenzyl)-1-(1H-indol-3-yl) propan-2-amine] | 434 nM | 84.2% | 102 nM | 
Cc1cc(Cl)cc(CNCc2c[nH]c3ccccc23)c1 [Compound 3, N-((1H-indol-3-yl)methyl)-1-(3-chloro-5-methylphenyl) methanamine hydrochloride] |  | 77.2% |  | 
COc1cc2c(CCNCc3cc(C)cc(Cl)c3)c[nH]c2cc1I [Compound 4, N-(3-chloro-5-methylbenzyl)-2-(6-iodo-5-methoxy-1H-indol-3-yl) ethan-1-amine] | 60 nM | 96.4% | 384 nM | 
Cc1cc(Cl)cc(CNCCc2cn(C)c3ccccc23)c1 [Compound 5, N-(3-chloro-5-methylbenzyl)-2-(1-methyl-1H-indol-3-yl) ethan-1-amine] | 17.5 nM | 112% | 116 nM | 
Cc1cc(Cl)cc(CNC(C)Cc2cn(C)c3ccccc23)c1 (stereo not drawn) [Compound 6, N-(3-chloro-5-methylbenzyl)-1-(1-methyl-1H-indol-3-yl) propan-2-amine] |  | 110% |  | 
CCn1cc(CCNCc2cc(C)cc(Cl)c2)c2ccccc21 [Compound 7, N-(3-chloro-5-methylbenzyl)-2-(1-ethyl-1H-indol-3-yl) ethan-1-amine hydrochloride] | 17.2 nM | 95.9% | 4 nM | 
CCn1cc(CC(C)NCc2cc(C)cc(Cl)c2)c2ccccc21 (stereo not drawn) [Compound 8, N-(3-chloro-5-methylbenzyl)-1-(1-ethyl-1H-indol-3-yl) propan-2-amine] |  | 86.4% |  | 
Cc1cc(Cl)cc(CNCCc2c(C)[nH]c3ccccc23)c1 [Compound 9, N-(3-chloro-5-methylbenzyl)-2-(2-methyl-1H-indol-3-yl) ethan-1-amine hydrochloride] | 15 nM | 88.9% | > 1000 nM | 
Cc1cc(F)cc(CNCCc2c[nH]c3ccccc23)c1 [Compound 10, N-(3-fluoro-5-methylbenzyl)-2-(1H-indol-3-yl) ethan-1-amine hydrochloride] |  | 72.6% |  | 
Cc1cc(Cl)cc(CNCCc2nn(C)c3ccccc23)c1 [Compound 11, N-(3-chloro-5-methylbenzyl)-2-(1-methyl-1H-indazol-3-yl)-ethan-1-amine] |  | 79.1% |  | 
Cc1cc(Cl)cc(CNCCn2ncc3ccccc32)c1 [Compound 12, N-(3-chloro-5-methylbenzyl)-2-(1H-indazol-1-yl) ethan-1-amine hydrochloride] |  | 69.8% |  | 
Cc1cc(Cl)cc(CNCCn2cnc3ccccc32)c1 [Compound 13, 2-(1H-benzo[d]imidazol-1-yl)-N-(3-chloro-5-methylbenzyl) ethan-1-amine hydrochloride] |  | 43.5% |  | 
Cc1cc(Cl)cc(CNCCn2c(=O)oc3ccccc32)c1 [Compound 17, 3-(2-((3-chloro-5-methylbenzyl)amino)ethyl)benzo-[d]oxazol-2(3H)-one] |  | -5.4% |  | 
Cc1cc(Cl)cc(CN(C)CCc2c[nH]c3ccccc23)c1 [Compound 18] |  | 93.3% |  | 
COc1ccc(OC)c(CCNCc2ccccc2F)c1 [Compound 25H-NBF] |  |  |  | preference for recruitment of β-arrestin 2 over miniGaq (5-HT2A [3]): statistically significant preference towards the recruitment of β-arrestin 2 over miniGaq
COc1ccc(OC)c(CCNCc2cccc3c2OCO3)c1 [Compound 25H-NBMD] |  |  |  | preference for recruitment of β-arrestin 2 over miniGaq (5-HT2A [3]): statistically significant preference towards the recruitment of β-arrestin 2 over miniGaq
COc1ccc(OC)c(CCNCc2ccccc2O)c1 [Compound 25H-NBOH] |  |  |  | preference for recruitment of β-arrestin 2 over miniGaq (5-HT2A [3]): statistically significant preference towards the recruitment of β-arrestin 2 over miniGaq
COc1ccc(OC)c(CCNCc2ccccc2OC)c1 [Compound 25H-NBOMe] |  |  |  | preference for recruitment of β-arrestin 2 over miniGaq (5-HT2A [3]): statistically significant preference towards the recruitment of β-arrestin 2 over miniGaq
CCN(CC)C(=O)[C@@H]1C=C2c3cccc4[nH]cc(c34)C[C@H]2N(C)C1 [LSD] |  |  |  | expression of early growth response proteins (EGR1 and EGR2) via Gi/o subunits and SRC protein kinase (5-HT2A receptor [4]): stimulated the expression of early growth response proteins (EGR1 and EGR2); activation of canonical Gq-based signaling downstream of 5-HT2A (5-HT2A receptor [5]): activate canonical Gq-based signaling downstream of 5-HT2A
